Format in all cases: cell-based
One assay has as its system MKN1 (stomach cancer). Kind of assay: Evaluation of anticancer action, cell proliferation inhibition (WST-8), MKN1. As to conditions: Homo sapiens, MKN-1, MKN1, about 72 hours. The text has this:
(§1) The cell proliferation inhibitory effects of a test substance (Compound 3) on various types of cancer cells were examined.
(§2) 1. Measuring Reagent and Analysis Software
(§3) WST-8 Kit (Cat. No. 260-96165 or 260-96162; manufactured by Kishida Chemical Co., Ltd.) for counting cell number
(§4) Software for graph making and measurement of GI50 value: XLfit 5.2 (ID Business Solutions Ltd.)
(§5) 2. Cells and Culture Conditions
(§6) Five types of cells and medium (the following Table) were used. The cells were obtained from the Research Resource Bank of the Human Sciences Foundation.
(§7) On the day when a sample was to be added, the sample was weighed and a medium for each type of cells was added so as to be 500 μg/mL. Sonication was performed while warming at 37° C. for 60 minutes to be dissolved. Then, filtration was performed by a 0.22 m-filter. The 500 μg/mL-solution was diluted with the medium for each type of cells to prepare 200 μg/mL, 60 μg/mL, 20 μg/mL, 6 μg/mL, 2 μg/mL, 0.6 μg/mL and 0.2 μg/mL solutions, which were specified as two-fold concentration test solutions (the final concentrations of the test substance were 250 µg/mL, 100 μg/mL, 30 μg/mL, 10 μg/mL, 3 μg/mL, 1 μg/mL, 0.3 μg/mL, […], respectively). […]
(§8) (8) Absorbance values at 450 nm and 650 nm were measured to calculate O.D. 450 and O.D. 650. […]
(§9) ODdrug-exposed wells: absorbance of a well containing a sample […]

The next assay relates to MCF-7 (breast cancer). Kind of assay: Evaluation of anticancer action, cell proliferation inhibition (WST-8), MCF-7. As to conditions: Homo sapiens, MCF7, MCF-7, about 72 hours.
Text: as §1, §2, §3, §4, §5, §6, §7, §8, §9
(Formazan colour is commonly taken as a measure of viable cells.)

Assay [1] concerns Trichophyton mentagrophytes NBRC5466 (trichophyton). Kind of assay: Antifungal test, minimum inhibitory concentration (MIC), trichophyton. As to conditions: NBRC5466, 168 h, 27±2° C., 7 days. On the procedure: Antimicrobial/Antifungal Test
Measurement of the Minimum Inhibitory Concentration (MIC) of a Test Substance
The minimum inhibitory concentration (MIC) of test substances (Compound 3, Compound 7) on a microorganism was measured.
1) Test Microbe (a) Staphylococcus aureus MRSAIID 1677 (methicillin-resistant staphylococcus aureus; MRSA) (b) Trichophyton mentagrophytes NBRC5466 (trichophyton)
2) Preparation of Microbe Solution for Inoculation
Test microbe (b): A strain cryopreserved was applied on PDA medium and cultured at 27±2° C. for 7 days. Spores were scraped out and suspended in a test microbe preparation solution, filtered with absorbent cotton. The solution was prepared so as to have a number of spores of about 10^6 CFU/mL. The test microbe solution prepared was serially diluted by 10-fold and cultured at 27±2° C. for 7 days and then the microbe cells were counted.
3) Serial Dilution of Test Substance
Two-fold serial dilutions of a test substance were prepared in the following procedure. To a test substance (1 mg), a medium (5 mL) for measuring the sensitivity of each microbe strains was added to obtain a stock solution of 200 μg/mL. […]
A test microbe solution (5 μL) was added dropwise to individual wells of the microplate. […] After culture, whether the microbe proliferated or not was determined by the naked eye. […]

For 2 compounds, GI50 and MIC results are on record in patent US9682931B2, “Aryloyl(oxy or amino)pentafluorosulfanylbenzene compound, pharmaceutically acceptable salt thereof, and prodrugs thereof” (UBE INDUSTRIES, LTD., priority 2013, dated 2017).

Converted amounts (≈) assume the structure as drawn.

Usually GI50 stands for the concentration that inhibits growth by half. A higher GI50 goes with less potent growth inhibition. By MIC is commonly meant the smallest concentration in the dilution series that meets the test's criterion for growth inhibition. A low value points to greater potency.

As to `O=C(Nc1ccc(S(F)(F)(F)(F)F)cc1)c1cc(O)c(O)c(O)c1` [Compound 3, 4-(3,4,5-trihydroxybenzoylamino)pentafluorosulfanylbenzene], the GI50 with MKN1 (stomach cancer) stood at 5.1 µg/mL (≈ 13.7 µM); in the assay on MCF-7 (breast cancer) it was 13.6 µg/mL (≈ 36.6 µM).

Regarding `O=C(Oc1ccc(S(F)(F)(F)(F)F)cc1)c1cc(O)c(O)c(O)c1` [Compound 7, 4-(3,4,5-trihydroxybenzoyloxy)pentafluorosulfanylbenzene], the MIC in assay [1] was determined as 6.3 µg/mL (≈ 16.9 µM).
